“And” between values parts separate entries of the source, which are not always exact repeats. Identical values can stand only once. Counter-ions that a name gives are not always drawn.
Legend:
[1] = Microdose study of 14C-AlphaHGA in healthy volunteers, urine pharmacokinetics (AMS); assay type: in vivo, human; settings: for cumulative recovery of the dose in the urine over 24 hr: range; for AUCTmax / AUClast / Dlast / Dmax / Tmax / Tfirst / Tlast: urine
Procedure: In this example, the pharmacokinetics (PK) and oral bioavailability of AlphaHGA in adult healthy volunteers following a single ‘microdose’ in a sequence-randomized, cross-over study design (two periods 7 days apart) was determined. Clinical experiments were conducted with low-level radiolabelled (^14C) AlphaHGA administered intravenously (IV) orally (PO) with serial blood and urine samples were collected for concentration analysis utilizing accelerator mass spectrometry (AMS).
Accordingly, eight subjects were enrolled into a single dose cross-over study. The subjects were randomly assigned to one of two administration sequences. Subjects that were assigned to sequence 1 received AlphaHGA as an oral preparation first (Period 1) followed by the intravenous (IV) preparation 1 week later (Period 2). Subjects assigned to sequence 2 received AlphaHGA as an intravenous preparation first followed by the oral preparation 1 week later. Four subjects were assigned to sequence 1 and four subjects were assigned to sequence 2.
For both oral and IV doses subjects were administered 100 nCi (3.7 Kbq) of alphaHGA, which was determined to contain 1.602888×10ˆ6 fmol of ^14C. The specific activity of each dose was 46.619 MBq/mol (or 1.260 mCi/mol). A stock blend of ^14C-labelled alphaHGA was produced prior to the first study period. The actual formulations used for dosing were prepared on the morning prior to each study period. The infusion was a single bolus injection with both the infusion and flush were completed in less than 30 seconds.
Urine samples were collected at pre-dose and during post-dose time intervals: 0 to 4, 4 to 8, 8 to 12, 12 to 16, and 16 to 24 hours. All urine collections were obtained. Cumulative urine voidings for the specified time intervals were collected in standard collection containers without additional modifiers or preservatives
Plasma specimens (30 μL) were analyzed directly via the combustive procedure without further chemical manipulation. For the purposes of calculating ^14C concentration per volume of plasma, a general carbon content of 45% (dry mass) was applied. The urine was mixed with equal volumes (0.5 mL) of a sucrose carbon diluent solution (200 g/L) and mixed by inversion in a disposable polypropylene centrifuge tube. A 20-μL sample was graphitized for AMS analysis according to standard procedures. The mass fraction of the urine represented in the measured sample was inverted and multipled by the ^14C contents above background derived from the AMS measurement to calculate the ^14C content in the total urine void. A density value of 1 g/mL for urine was assumed to calculate its volume from the recorded masses.
Area-under-the-plasma-concentration-time curve from time zero to the last quantified concentration (AUClast), was calculated by the linear trapezoidal method from the observed concentrations. Area-under-the concentration-time curve from time zero to infinity (AUCinf) was obtained as the sum of AUClast and the extrapolation term Clast/λz, where Clast denotes the last observed quantifiable concentration. The percentage of AUCinf obtained by extrapolation (AUC % extrap) was calculated as [(AUCinf−AUClast)/AUCinf]*100. It should be noted that the area for the IV plasma data will result in an underestimation of the AUC in the first trapezoid because the concentration at time 0 was set to 0 and there is not reasonable way to impute a value at time 0. Area-under-the-concentration-time curve from time zero to the maximum concentration (AUCTmax) was calculated by the linear trapezoidal method. […]. This approach was necessary given the nature of the parameters requested by the sponsor.
Values for the following PK parameters were estimated from urine levels of AlphaHGA during the various time intervals. […]

HIV (SF2 virus) = assay: HIV infectivity assay, SF2-infected H9 cells, visible syncytia; assay type: cell-based; settings: for Visible syncytia: H9/SF2, day 11
[2] = route iv, individual subjects 1-8, period 1 or 2, hydrochloride, dosing period 1
[3] = route iv, individual subjects 1-8, period 1 or 2, hydrochloride, dosing period 2
[4] = route po, individual subjects 1-8, period 1 or 2, dosing period 1
[5] = route po, individual subjects 1-8, period 1 or 2, dosing period 2
[6] = route po, individual subjects 1-8, period 1 or 2, hydrochloride, dosing period 1
[7] = route po, individual subjects 1-8, period 1 or 2, hydrochloride, dosing period 2

In the case of `NC(=O)C(N)O` (stereo not drawn) [AlphaHGA, α-Hydroxy-glycinamide hydrochloride], the “cumulative recovery of the dose in the urine over 24 hr, mean” value ([1]; IV administration) is reported as 63.7, the “cumulative recovery of the dose in the urine over 24 hr” value ([1]; IV administration) is reported as 35-100% and the “cumulative recovery of the dose in the urine over 24 hr” value ([1]; oral administration) is reported as 34-100%. It also gave an AUCTmax ([1]; Period 1, Max) of 748180 fmol·h, an AUClast ([1]; Period 1, Max) of 2934335 fmol·h and a Dlast ([1]; Period 1, Max) of 41355 fmol. For the same compound, the Dmax ([1]; Period 1, Max) was 374090 fmol, the AUCTmax ([1]; Period 1, Mean) was 654984 fmol·h and the AUClast ([1]; Period 1, Mean) was 2575235 fmol·h. It also gave a Dlast ([1]; Period 1, Mean) of 29774 fmol, a Dmax ([1]; Period 1, Mean) of 327492 fmol and an AUCTmax ([1]; Period 1, Min) of 459180 fmol·h. For the same compound, the AUClast ([1]; Period 1, Min) was 2239453 fmol·h, the Dlast ([1]; Period 1, Min) was 19395 fmol and the Dmax ([1]; Period 1, Min) was 229590 fmol. The AUCTmax ([1]; Period 2, Max) was 1882171 fmol·h, the AUClast ([1]; Period 2, Max) was 6993866 fmol·h and the Dlast ([1]; Period 2, Max) was 133040 fmol. It also gave a Dmax ([1]; Period 2, Max) of 941085 fmol, an AUCTmax ([1]; Period 2, Mean) of 1437891 fmol·h and an AUClast ([1]; Period 2, Mean) of 6007590 fmol·h. It also gave a Dlast ([1]; Period 2, Mean) of 98450 fmol, a Dmax ([1]; Period 2, Mean) of 718945 fmol and an AUCTmax ([1]; Period 2, Min) of 1207722 fmol·h. It also gave an AUClast ([1]; Period 2, Min) of 5220702 fmol·h, a Dlast ([1]; Period 2, Min) of 48888 fmol and a Dmax ([1]; Period 2, Min) of 603861 fmol. It also gave an AUCTmax ([1]; Route iv, Max) of 1489152 fmol·h, an AUClast ([1]; Route iv, Max) of 6540408 fmol·h and a Dlast ([1]; Route iv, Max) of 114767 fmol. It also gave a Dmax ([1]; Route iv, Max) of 744576 fmol, an AUCTmax ([1]; Route iv, Mean) of 964045 fmol·h and an AUClast ([1]; Route iv, Mean) of 4155954 fmol·h. For the same compound, the Dlast ([1]; Route iv, Mean) was 61864 fmol, the Dmax ([1]; Route iv, Mean) was 482022 fmol and the AUCTmax ([1]; Route iv, Min) was 459180 fmol·h. It also gave an AUClast ([1]; Route iv, Min) of 2368127 fmol·h, a Dlast ([1]; Route iv, Min) of 19716 fmol and a Dmax ([1]; Route iv, Min) of 229590 fmol. The AUCTmax ([1]; Route po, Max) was 1882171 fmol·h, the AUClast ([1]; Route po, Max) was 6993866 fmol·h and the Dlast ([1]; Route po, Max) was 133040 fmol. It also gave a Dmax ([1]; Route po, Max) of 941085 fmol, an AUCTmax ([1]; Route po, Mean) of 1128830 fmol·h and an AUClast ([1]; Route po, Mean) of 4426871 fmol·h. For the same compound, the Dlast ([1]; Route po, Mean) was 66360 fmol, the Dmax ([1]; Route po, Mean) was 564415 fmol and the AUCTmax ([1]; Route po, Min) was 710260 fmol·h. It also gave an AUClast ([1]; Route po, Min) of 2239453 fmol·h, a Dlast ([1]; Route po, Min) of 19395 fmol and a Dmax ([1]; Route po, Min) of 355130 fmol. The Tmax ([1]; route iv, individual subjects 1-8, period 1 or 2) was 4 h, the Tfirst ([1]; route iv, individual subjects 1-8, period 1 or 2, dosing period 1) was 4 h and the Tfirst ([1]; route iv, individual subjects 1-8, period 1 or 2, dosing period 2) was 4 h. For the same compound, the AUCTmax [1, 2] was 684594 fmol·h and 543376 fmol·h and 639322 fmol·h and 459180 fmol·h, the AUClast [1, 2] was 2934335 fmol·h and 2573446 fmol·h and 2551259 fmol·h and 2368127 fmol·h and the Dlast [1, 2] was 32699 fmol and 40072 fmol and 41355 fmol and 19716 fmol. The Dmax [1, 2] was 342297 fmol and 271688 fmol and 319661 fmol and 229590 fmol, the Tlast [1, 2] was 24 h and the AUCTmax [1, 3] was 1207722 fmol·h and 1479193 fmol·h and 1489152 fmol·h and 1209818 fmol·h. For the same compound, the AUClast [1, 3] was 5505102 fmol·h and 5554250 fmol·h and 6540408 fmol·h and 5220702 fmol·h, the Dlast [1, 3] was 48888 fmol and 88098 fmol and 109317 fmol and 114767 fmol and the Dmax [1, 3] was 603861 fmol and 739597 fmol and 744576 fmol and 604909 fmol. For the same compound, the Tlast [1, 3] was 24 hr (3×) and 16 hr, the Tmax ([1]; route po, individual subjects 1-8, period 1 or 2) was 4 h and the Tfirst [1, 4] was 4 h. The Tlast [1, 4] was 24 h, the Tfirst [1, 5] was 4 h and the Tlast [1, 5] was 24 h. The AUCTmax [1, 6] was 727839 fmol·h and 710260 fmol·h and 727119 fmol·h and 748180 fmol·h, the AUClast [1, 6] was 2696170 fmol·h and 2239453 fmol·h and 2618588 fmol·h and 2620500 fmol·h and the Dlast [1, 6] was 22280 fmol and 30936 fmol and 19395 fmol and 31737 fmol. The Dmax [1, 6] was 363920 fmol and 355130 fmol and 363559 fmol and 374090 fmol, the AUCTmax [1, 7] was 1882171 fmol·h and 1326533 fmol·h and 1425912 fmol·h and 1482625 fmol·h and the AUClast [1, 7] was 6993866 fmol·h and 6127092 fmol·h and 6093252 fmol·h and 6026045 fmol·h. For the same compound, the Dlast [1, 7] was 80465 fmol and 133040 fmol and 109798 fmol and 103226 fmol and the Dmax [1, 7] was 941085 fmol and 663266 fmol and 712956 fmol and 741313 fmol.

With `NCC(N)=O` [G-NH2, glycinamide] the Visible syncytia (HIV (SF2 virus); 100 μM in boiled RPMI++) was “positive”, the Visible syncytia (HIV (SF2 virus); 100 μM in normal RPMI++ (10% FCS)) was “negative” and the “inhibition of replication and/or propagation of HIV by visual inspection” value (HIV (SF2 virus); boiled fetal calf serum) was “did not”.

— US20080076824A1, “Compounds That Inhibit Replication Of Human Immunodeficiency Virus” (priority 2004, published 2008)
